Reference: the supplement of paper PMC4862054
“And” between values parts separate entries of the source, which are not always exact repeats. Equal values may be shown once.

Columns and labels:
Conditions in all cases: incubation time: 72 h
MDA-MB-468 [1] = experiment: drug sensitivity score (DSS), CellTiter-Glo (DSS (AUC-based score)); higher = stronger drug effect (viability inhibition or cytotoxicity); extreme values may be limits of the assay
In short: (§1)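 For 72 h, breast cancer cell lines seeded at 20 µl suspension per well in 384-well plates were incubated with compound at 5 concentrations in 10-fold steps spanning a 10,000-fold range that differed by compound. The first reading was CellTox Green fluorescence at 485/520 nm, and the second was CellTiter-Glo luminescence after 10 min at room temperature. Both were normalised per plate to 0.1 % DMSO and a positive kill control, and the drug sensitivity score was obtained from the area under the fitted dose-response curve.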

CAL-51 = experiment: as above
In short: as §1

HCC1143 [2] = experiment: as above
In short: as §1

HCC1599 = experiment: as above
In short: as §1

MDA-MB-436 [3] = experiment: as above
In short: as §1

DU-4475 = experiment: as above
In short: as §1

BT-474 = experiment: as above
In short: as §1

HCC1937 = experiment: as above
In short: as §1

MDA-MB-231 = experiment: as above
In short: as §1

CAL-120 [4] = experiment: as above
In short: as §1

BT-549 [5] = experiment: as above
In short: as §1

MCF-10A = experiment: as above
In short: as §1

SK-BR-3 = experiment: as above
In short: as §1

MFM-223 [6] = experiment: as above
In short: as §1

MDA-MB-453 [7] = experiment: as above
In short: as §1

HDQ-P1 [8] = experiment: as above
In short: as §1

Hs578T [9] = experiment: as above
In short: as §1

MDA-MB-468 [10] = experiment: normalised viability (% of control), CellTiter-Blue; higher = more viable cells (about 100 = DMSO control)
In short: (§2)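 Breast cancer cell lines were treated for 72 h in 384-well format and measured by CellTiter-Blue fluorescence at 560/590 nm. Results were normalised per plate to vehicle (100) and a positive kill control (0). The entry is normalised viability at a single listed concentration of the series.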

HCC1143 [11] = experiment: as above
In short: as §2

MDA-MB-436 [12] = experiment: as above
In short: as §2

CAL-120 [13] = experiment: as above
In short: as §2

BT-549 [14] = experiment: as above
In short: as §2

CAL-85-1 = experiment: as above
In short: as §2

MFM-223 [15] = experiment: as above
In short: as §2

MDA-MB-453 [16] = experiment: as above
In short: as §2

CAL-148 = experiment: as above
In short: as §2

Hs578T [17] = experiment: as above
In short: as §2

HDQ-P1 [18] = experiment: as above
In short: as §2

Nc1ncnc2c1c(COc1cccc(Cl)c1)nn2C1CCOCC1
drug sensitivity score (MDA-MB-468 [1]): 0 | drug sensitivity score (CAL-51): 0 | drug sensitivity score (HCC1143 [2]): 0 | drug sensitivity score (HCC1599): 0 | drug sensitivity score (MDA-MB-436 [3]): 0 | drug sensitivity score (DU-4475): 0 | drug sensitivity score (BT-474): 0 | drug sensitivity score (HCC1937): 0 | drug sensitivity score (MDA-MB-231): 0 | drug sensitivity score (CAL-120 [4]): 0 | drug sensitivity score (BT-549 [5]): 0.519 | drug sensitivity score (MCF-10A): 0 | drug sensitivity score (SK-BR-3): 0 | drug sensitivity score (MFM-223 [6]): 0 | drug sensitivity score (MDA-MB-453 [7]): 0 | drug sensitivity score (HDQ-P1 [8]): 0 | drug sensitivity score (Hs578T [9]): 0

COc1ccccc1S(=O)(=O)Nc1ccc2c(c1)CN(C)C(=O)N2 [PFI-1]
drug sensitivity score (MDA-MB-468 [1]): 0 | drug sensitivity score (CAL-51): 3.76 | drug sensitivity score (HCC1143 [2]): 0 | drug sensitivity score (HCC1599): 0 | drug sensitivity score (MDA-MB-436 [3]): 1.33 | drug sensitivity score (DU-4475): 0.973 | drug sensitivity score (BT-474): 0 | drug sensitivity score (HCC1937): 0 | drug sensitivity score (MDA-MB-231): 1.83 | drug sensitivity score (CAL-120 [4]): 2.01 | drug sensitivity score (BT-549 [5]): 5.52 | drug sensitivity score (MCF-10A): 1.98 | drug sensitivity score (SK-BR-3): 0 | drug sensitivity score (MFM-223 [6]): 1.13 | drug sensitivity score (MDA-MB-453 [7]): 4.63 | drug sensitivity score (HDQ-P1 [8]): 0 | drug sensitivity score (Hs578T [9]): 4.98

Cc1ccc(NC(=O)c2ccc(CN3CCN(C)CC3)cc2)cc1Nc1nccc(-c2cccnc2)n1 [Imatinib]
normalised viability (MDA-MB-468 [10]; 10000 nM): 103% and 99.3% | normalised viability (HCC1143 [11]; 10000 nM): 86.7% and 88.8% | normalised viability (MDA-MB-436 [12]; 10000 nM): 97.6% and 106% | normalised viability (CAL-120 [13]; 10000 nM): 114% | normalised viability (BT-549 [14]; 10000 nM): 93% and 76.6% | normalised viability (CAL-85-1; 100 nM): 90.9% | normalised viability (MFM-223 [15]; 10000 nM): 105% and 98% | normalised viability (MDA-MB-453 [16]; 100 nM): 104% and 99.3% | normalised viability (CAL-148; 100 nM): 85.4% and 91.8% | normalised viability (Hs578T [17]; 10000 nM): 95.3% and 109% | drug sensitivity score (MDA-MB-468 [1]): 0 | drug sensitivity score (CAL-51): 1.42 | drug sensitivity score (HCC1143 [2]): 0 | drug sensitivity score (HCC1599): 0 | drug sensitivity score (MDA-MB-436 [3]): 0 | drug sensitivity score (DU-4475): 0 | drug sensitivity score (BT-474): 0 | drug sensitivity score (HCC1937): 0 | drug sensitivity score (MDA-MB-231): 0 | drug sensitivity score (CAL-120 [4]): 0 | drug sensitivity score (BT-549 [5]): 0 | drug sensitivity score (MCF-10A): 0 | drug sensitivity score (SK-BR-3): 0 | drug sensitivity score (MFM-223 [6]): 0 | drug sensitivity score (MDA-MB-453 [7]): 0.32 | drug sensitivity score (HDQ-P1 [8]): 0 | drug sensitivity score (Hs578T [9]): 0

NS(=O)(=O)OC[C@@H]1C[C@@H](n2ccc3c(N[C@H]4CCc5ccccc54)ncnc32)C[C@@H]1O [Pevonedistat]
drug sensitivity score (MDA-MB-468 [1]): 17.8 | drug sensitivity score (CAL-51): 22.8 | drug sensitivity score (HCC1143 [2]): 8.48 | drug sensitivity score (HCC1599): 14 | drug sensitivity score (MDA-MB-436 [3]): 14.2 | drug sensitivity score (DU-4475): 22.5 | drug sensitivity score (BT-474): 7.25 | drug sensitivity score (HCC1937): 2.78 | drug sensitivity score (MDA-MB-231): 6.52 | drug sensitivity score (CAL-120 [4]): 7.98 | drug sensitivity score (BT-549 [5]): 15.3 | drug sensitivity score (MCF-10A): 0 | drug sensitivity score (SK-BR-3): 21.7 | drug sensitivity score (MFM-223 [6]): 9.97 | drug sensitivity score (MDA-MB-453 [7]): 3.83 | drug sensitivity score (HDQ-P1 [8]): 2.51 | drug sensitivity score (Hs578T [9]): 5.18

CN(C)CCN1C(=O)c2cccc3cc(N)cc(c23)C1=O [Amonafide]
normalised viability (MDA-MB-468 [10]; 10000 nM): 41.3% | normalised viability (HCC1143 [11]; 10000 nM): 43.5% | normalised viability (MDA-MB-436 [12]; 10000 nM): 44.1% | normalised viability (CAL-120 [13]; 10000 nM): 24.3% | normalised viability (BT-549 [14]; 10000 nM): 47.9% | normalised viability (CAL-85-1; 100 nM): 87.8% | normalised viability (MFM-223 [15]; 10000 nM): 31.6% | normalised viability (MDA-MB-453 [16]; 100 nM): 81% | normalised viability (CAL-148; 100 nM): 84.7% | normalised viability (HDQ-P1 [18]; 100 nM): 110% | normalised viability (Hs578T [17]; 10000 nM): 47.6% | drug sensitivity score (MDA-MB-468 [1]): 2.59 | drug sensitivity score (CAL-51): 2.87 | drug sensitivity score (HCC1143 [2]): 1.61 | drug sensitivity score (HCC1599): 0.856 | drug sensitivity score (MDA-MB-436 [3]): 2.32 | drug sensitivity score (DU-4475): 5.38 | drug sensitivity score (BT-474): 5.06 | drug sensitivity score (HCC1937): 2.35 | drug sensitivity score (MDA-MB-231): 3.06 | drug sensitivity score (CAL-120 [4]): 3.03 | drug sensitivity score (BT-549 [5]): 2.93 | drug sensitivity score (MCF-10A): 2.36 | drug sensitivity score (SK-BR-3): 3.61 | drug sensitivity score (MFM-223 [6]): 0.47 | drug sensitivity score (MDA-MB-453 [7]): 0 | drug sensitivity score (HDQ-P1 [8]): 0 | drug sensitivity score (Hs578T [9]): 2.97

CO[C@H]1C[C@@H]2CC[C@@H](C)[C@@](O)(O2)C(=O)C(=O)N2CCCC[C@H]2C(=O)O[C@H]([C@H](C)C[C@@H]2CC[C@@H](OCCO)[C@H](OC)C2)CC(=O)[C@H](C)/C=C(\C)[C@@H](O)[C@@H](OC)C(=O)[C@H](C)C[C@H](C)/C=C/C=C/C=C/1C [Everolimus]
normalised viability (MDA-MB-468 [10]; 1000 nM): 56.8% and 64.2% | normalised viability (MDA-MB-436 [12]; 1000 nM): 93.8% and 71.5% | normalised viability (CAL-120 [13]; 1000 nM): 53.2% and 38.1% | normalised viability (BT-549 [14]; 1000 nM): 56.4% and 46.6% | normalised viability (CAL-85-1; 10 nM): 68.8% and 61.3% | normalised viability (MFM-223 [15]; 1000 nM): 51.6% and 26.8% | normalised viability (MDA-MB-453 [16]; 10 nM): 32.7% and 28.1% | normalised viability (CAL-148; 10 nM): 44.4% and 37.9% | normalised viability (HDQ-P1 [18]; 10 nM): 79.4% and 60.5% | normalised viability (Hs578T [17]; 1000 nM): 53.2% and 41.5% | drug sensitivity score (MDA-MB-468 [1]): 16 | drug sensitivity score (CAL-51): 9.8 | drug sensitivity score (HCC1143 [2]): 8.31 | drug sensitivity score (HCC1599): 0 | drug sensitivity score (MDA-MB-436 [3]): 5.1 | drug sensitivity score (DU-4475): 6.44 | drug sensitivity score (BT-474): 3.02 | drug sensitivity score (HCC1937): 8.95 | drug sensitivity score (MDA-MB-231): 0 | drug sensitivity score (CAL-120 [4]): 8.8 | drug sensitivity score (BT-549 [5]): 13 | drug sensitivity score (MCF-10A): 0 | drug sensitivity score (SK-BR-3): 12.7 | drug sensitivity score (MFM-223 [6]): 10.8 | drug sensitivity score (MDA-MB-453 [7]): 10 | drug sensitivity score (HDQ-P1 [8]): 3.41 | drug sensitivity score (Hs578T [9]): 9.44

O=C1NC(=O)[C@@H](c2cn3c4c(cccc24)CCC3)[C@@H]1c1c[nH]c2ccccc12 [Tivantinib]
normalised viability (MDA-MB-468 [10]; 1000 nM): 42.4% | normalised viability (HCC1143 [11]; 1000 nM): 55.2% | normalised viability (MDA-MB-436 [12]; 1000 nM): 52.3% | normalised viability (CAL-120 [13]; 1000 nM): 29.7% | normalised viability (BT-549 [14]; 1000 nM): 26.8% | normalised viability (CAL-85-1; 10 nM): 104% | normalised viability (MFM-223 [15]; 1000 nM): 57.8% | normalised viability (MDA-MB-453 [16]; 10 nM): 107% | normalised viability (CAL-148; 10 nM): 97.9% | normalised viability (HDQ-P1 [18]; 10 nM): 100% | normalised viability (Hs578T [17]; 1000 nM): 19.9% | drug sensitivity score (MDA-MB-468 [1]): 2.74 | drug sensitivity score (CAL-51): 1.38 | drug sensitivity score (HCC1143 [2]): 2.06 | drug sensitivity score (HCC1599): 0.956 | drug sensitivity score (MDA-MB-436 [3]): 2.69 | drug sensitivity score (DU-4475): 0.839 | drug sensitivity score (BT-474): 0.701 | drug sensitivity score (HCC1937): 0 | drug sensitivity score (MDA-MB-231): 1.39 | drug sensitivity score (CAL-120 [4]): 0.91 | drug sensitivity score (BT-549 [5]): 2.94 | drug sensitivity score (MCF-10A): 1.72 | drug sensitivity score (SK-BR-3): 4.51 | drug sensitivity score (MFM-223 [6]): 0 | drug sensitivity score (MDA-MB-453 [7]): 4.48 | drug sensitivity score (HDQ-P1 [8]): 0 | drug sensitivity score (Hs578T [9]): 3.41
